Reference: patent publication US6355674B1, “Aminotetralins as 5-HT1D α Agonists” (Eli Lilly and Company, priority 1997, dated 2002)
Counter-ions that a name gives are not always drawn.

SMILES	melting point
CN(C)C1CCc2cccc(C3(O)CCCCC3)c2C1 (stereo not drawn) (as salt: hydrobromid) (hydrate or solvate)	210 to 211 °C
Cc1cccc2c1C[C@H](N(C)C)CC2 (as salt: hydrochloride)	180 to 181 °C (dec.)
C/C=C(\CC)c1cccc2c1C[C@H](N(C)C)CC2 (as salt: hydrochloride)	158 to 160 °C

More lines, now with the values ahead:

melting point	SMILES
186 to 187 °C	CN(C)C1CCc2cccc(C3(O)CCCCCC3)c2C1 (stereo not drawn) (as salt: hydrobromid) (hydrate or solvate)
147 to 148 °C	COCCOCc1cccc2c1CC(N(C)C)CC2 (stereo not drawn) (as salt: hydrochloride)
158 to 159 °C	CN(C)C1CCc2cccc(C3CCCC3)c2C1 (stereo not drawn) (as salt: hydrochloride)
